Experimental data taken from patent US11345673B2, “1-phenylpropanone compounds and use thereof” (UNIVERSITA' DEGLI STUDI DI PADOVA, priority 2016, dated 2022).

Assays:
[1] = system: breast cancer and multiple myeloma cells; conditions: cited from earlier work
S1P1 receptor = assay: Immunosuppressive effect: Western blot of S1P1 receptor in LLC cells; format: cell-based, human; conditions: incubation for discrete times (3 hours, 12 hours)
Procedure: To this end, LLC cells (5×10^5 per well) were seeded and cultured on 12-well plates in RPMI-1640 medium, 10% FBS, at 37° C. in a humidified atmosphere containing 5% CO2, adding to the culture the various test compounds. Incubation was conducted for discrete times, at the end of which the cells were lysed to submit the protein content to Western blot analysis with antibodies that specifically recognize the S1P1 receptor.

**Q.** What does the source list for `CCCCOc1ccc(C(=O)CCN2CCCCC2)cc1` [dyclonine]?
**A.** IC50 ([1]; breast cancer and multiple myeloma cells, articles of D. Ju et al., read-out: induction of caspase-dependent apoptosis (IC50 values)): 15 to 30 µM; cytotoxic effects of dyclonine alone ([1]; in vitro, alone without MG132 or bortezomib): very limited cytotoxic effects

**Q.** For `CCCCCCCCc1ccc(CCC(N)(CO)CO)cc1.Cl` [FTY720, 2-amino-2[2-(4-octylphenyl)ethyl]propane-1,3-diol hydrochloride], which “S1P1 receptor expression (Western blot, FIG. 1)” value (S1P1 receptor) is on record?
**A.** induces a rapid decrease of S1P1 receptor
